Source: patent US5563130A, “Methods for inhibiting angiogenesis, proliferation of endothelial or tumor cells and tumor growth” (American Cyanamid Company, priority 1994, dated 1996)
Converted amounts (≈) assume the structure as drawn.

Key:
Format in all cases: cell-based
A2780S = assay: Antiproliferative activity in human ovarian tumor cell line A2780S; details: Homo sapiens, A2780S, PROTOCOL 1 and PROTOCOL 2
Procedure: (§1) PROTOCOL 1, 2, and 3 are described in greater detail hereinbelow. In general, according to PROTOCOLS 1 and 2, the target ABAE and/or Human Tumor cells are exposed to the compound of Formula I for 48 hours. PROTOCOL 3 exposes ABAE cell to the compound for 4 days. A detailed description of the protocol is as follows:
(§2) Antiproliferative Activity in Human Tumor and Adult Bovine Aortic Endothelial (ABAE) Cell Lines
(§3) The antiproliferative activity of the compounds of Formula I of the present invention is evaluated in a panel comprised of human tumor cell lines and an adult bovine aortic endothelial cell line (ABAE). The human tumor cell lines are from:
(§4) All cell lines are maintained in log phase in RPMI 1640 media, supplemented with 5% fetal calf serum, penicillin/streptomycin and 2 mM L-glutamine. Cultures are renewed after 20 passages with cells from a fresh stock of batch-frozen early passage cells. Cell lines are routinely checked for mycoplasma contamination (Genprobe). In a laminar flow hood, cells (1-5×10^4) are plated into 96-well microtiter plates in a volume of 0.1 ml/well with a bulk microtiter dispenser (Denley). […] At this concentration, dimethylsulfoxide has no effect on cell growth. Compounds are added using a Tomtec dispenser which simultaneously dispenses from one 96-well plate, containing the drug dilutions, to the plates containing the cells. After two days of continuous drug exposure, 50% cold trichloroacetic acid (TCA) is added to 10% final concentration to fix the cells, and after 60 minutes at 4° C., the TCA is aspirated and the plates are washed 5 times with deionized water using a microtiter plate washer. The number of cells on the plate are quantitated using a protein dye-binding assay (Monks et al., 1991). A 0.4% solution of the dye, sulforhodamine B, in glacial acetic acid is added to the plates, and the plates are washed 5 times with 1% glacial acetic acid using the automatic plate washed. The bound stain is solubilized with 0.1 ml of 10 mM Tris base. The optical densities are read from an automatic spectrophotometric plate reader (Dynatech) directly to a main frame computer (VAX 8600).
(§5) Positive controls, that include standard chemotherapeutic drugs (i.e., adriamycin, cisplatin, etc.), are included in every experiment.
(§6) Background optical density measurements (complete media-cells, and complete media+drug-cells) are automatically subtracted from the appropriate control and test wells. Mean values and standard errors are determined from duplicate wells. A measure is also made of the optical density at time when the drugs are added. The number of cells after treatment (P), as % of control, is calculated for every concentration of drug, as follows: [formula] wherein: T is optical density measurement for treated cells after 48 hours;
(§7) C is optical density measurement for untreated cells after 48 hours;
(§8) Co is optical density measurement for cells at the time of drug addition.
(§9) IC50 of growth inhibition is calculated from the sets of P values using the RS-1 data package (BBN Software).
(§10) The antiproliferative activity of the compounds of Formula I is evaluated in a panel comprised of human tumor cell lines and an adult bovine aortic endothelial cell line (ABAE) as listed in PROTOCOL 1. This assay is a modification of PROTOCOL 1. The modifications include:
(§11) 1) each concentration for each compound is tested in a single well;
(§12) 2) compounds are tested at 20, 4, 0.8, 0.16 microgram/ml and additionally in some experiments at 100 and 0.32 microgram/ml;
(§13) 3) samples are pipetted into a 96-well plate for each of the cell lines by a Beckman Biomek 1000 SL robot;
(§14) 4) after fixing with TCA each well is washed with 0.35 ml distilled water twice, not five times;
(§15) 5) after staining with sulforhodamine B each well is washed 3 times, not five times; […]

HTB 16 = assay: Antiproliferative activity in human tumor cell line HTB 16; details: Homo sapiens; ovarian tumor line; PROTOCOL 1 and PROTOCOL 2
Procedure: as §1, §2, §3, §4, §5, §6, §7, §8, §9, §10, §11, §12, §13, §14, §15

[1] = test system: Adult Bovine Aortic Endothelial (ABAE) cell line; assay: Antiproliferative activity in ABAE cells, PROTOCOL 1 (48 h, SRB); details: Bos taurus
Procedure: PROTOCOL 1, 2, and 3 are described in greater detail hereinbelow. In general, according to PROTOCOLS 1 and 2, the target ABAE and/or Human Tumor cells are exposed to the compound of Formula I for 48 hours. PROTOCOL 3 exposes ABAE cell to the compound for 4 days. A detailed description of the protocol is as follows: Antiproliferative Activity in Human Tumor and Adult Bovine Aortic Endothelial (ABAE) Cell Lines The antiproliferative activity of the compounds of Formula I of the present invention is evaluated in a panel comprised of human tumor cell lines and an adult bovine aortic endothelial cell line (ABAE). […] The number of cells on the plate are quantitated using a protein dye-binding assay (Monks et al., 1991). […] The optical densities are read from an automatic spectrophotometric plate reader (Dynatech) directly to a main frame computer (VAX 8600). […] Mean values and standard errors are determined from duplicate wells. […] The number of cells after treatment (P), as % of control, is calculated for every concentration of drug, as follows: [formula] wherein: T is optical density measurement for treated cells after 48 hours; C is optical density measurement for untreated cells after 48 hours; Co is optical density measurement for cells at the time of drug addition. IC50 of growth inhibition is calculated from the sets of P values using the RS-1 data package (BBN Software). […]

CN(C)c1ccc(O)c2c1C[C@H]1C[C@H]3[C@H](N(C)C)C(O)=C(C(N)=O)C(=O)[C@@]3(O)C(O)=C1C2=O [Minocycline, reference compound]
IC50 (A2780S): 6.1 µg/mL (≈ 13.3 µM) | IC50 (HTB 16): 5.8 µg/mL (≈ 12.7 µM) | IC50 [1]: 6.8 µg/mL (≈ 14.9 µM)
